From ChEMBL document CHEMBL4350994, “Andrographolide: A natural product template for the generation of structurally and biologically diverse diterpenes” (Eur J Med Chem, 2019)

Experiments:
[1] = Growth inhibition of human OVCAR1 cells; assay type: functional
[2] = tested on: DU-145; experiment: Growth inhibition of human DU145 cells; assay type: functional
[3] = tested on: Rattus norvegicus; experiment: Hypoglycemic activity in diabetic rat assessed as decrease in blood glucose level at 150 mg/kg after 24 hrs relative to control; assay type: functional; design: scale not given: the % may be the effect or the level left
[4] = tested on: NCI/ADR-RES; experiment: Growth inhibition of human MCF7/ADR cells; assay type: functional
[5] = tested on: U-251; experiment: Growth inhibition of human U251 cells; assay type: functional
[6] = tested on: SW-620; experiment: Growth inhibition of human SW620 cells; assay type: functional
[7] = tested on: SK-OV-3; experiment: Growth inhibition of human SKOV3 cells; assay type: functional
[8] = tested on: A498; experiment: Growth inhibition of human A498 cells; assay type: functional
[9] = molecular target: T1, Bile acid receptor (Homo sapiens, UniProt Q96RI1); experiment: Antagonist activity at FXR (unknown origin)
T1 sequence (Q96RI1 whole entry): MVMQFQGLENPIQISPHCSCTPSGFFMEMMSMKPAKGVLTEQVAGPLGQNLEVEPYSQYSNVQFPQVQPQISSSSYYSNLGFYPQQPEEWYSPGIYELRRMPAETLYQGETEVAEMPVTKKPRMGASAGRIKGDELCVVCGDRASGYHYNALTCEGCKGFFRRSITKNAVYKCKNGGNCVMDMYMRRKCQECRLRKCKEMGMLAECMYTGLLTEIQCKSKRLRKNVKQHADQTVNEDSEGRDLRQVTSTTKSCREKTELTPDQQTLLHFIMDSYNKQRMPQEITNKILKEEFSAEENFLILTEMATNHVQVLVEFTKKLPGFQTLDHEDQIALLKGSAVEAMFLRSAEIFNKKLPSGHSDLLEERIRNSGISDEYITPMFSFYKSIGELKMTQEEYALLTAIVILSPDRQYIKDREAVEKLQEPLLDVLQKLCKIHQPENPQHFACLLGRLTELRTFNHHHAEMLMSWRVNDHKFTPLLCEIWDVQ

[10] = Antiviral activity against H9N2 subtype infected in MDCK cells after 2 to 3 days; assay type: functional, cell-based; conditions: Influenza A virus
[11] = tested on: H5N1 subtype; experiment: Antiviral activity against H5N1 subtype infected in MDCK cells after 2 to 3 days; assay type: functional, organism-based; conditions: Influenza A virus
[12] = Selectivity index, ratio of CC50 for MDCK cells to EC50 for H9N2 subtype
[13] = Antiviral activity H1N1 subtype infected in MDCK cells after 2 to 3 days; assay type: functional, cell-based; conditions: Influenza A virus
[14] = Selectivity index, ratio of CC50 for MDCK cells to EC50 for H5N1 subtype
[15] = Selectivity index, ratio of CC50 for MDCK cells to EC50 for H1N1 subtype
[16] = tested on: MCF7; experiment: Growth inhibition of human MCF7 cells; assay type: functional
[17] = Cytotoxicity against human KKU-M213 cells assessed as reduction in cell viability after 24 hrs by MTT assay; assay type: functional, cell-based; conditions: KKU-M213, 24 h
[18] = molecular target: T1, Bile acid receptor; experiment: Antagonist activity at Gal4 DBD-fused human FXR LBD expressed in human HepG2 cells after 8 hrs by luciferase reporter gene assay; assay type: cell-based
[19] = tested on: Mus musculus; experiment: Hypoglycemic activity in db/db mouse assessed as decrease in blood glucose level at 100 mg/kg administered daily for 6 days relative to control; assay type: functional; design: scale not given: the % may be the effect or the level left
[20] = tested on: Mus musculus; experiment: Decrease in plasma triglycerides level in db/db mouse at 100 mg/kg administered daily for 6 days relative to control; assay type: functional; design: scale not given: the % may be the effect or the level left

With `C=C1CC[C@@H]2[C@]3(C)COC(C)(c4ccccc4)O[C@@H]3CC[C@@]2(C)[C@@H]1CC(NC(Cc1ccccc1)C(=O)OC)C1=CCOC1=O` (some centres not stated) the GI50 [1] was 1400 nM.
For `C=C1CC[C@@H]2[C@]3(C)COC(C)(C)O[C@@H]3CC[C@@]2(C)[C@@H]1Cc1cc(=O)[nH]c(N)n1`, the GI50 [2] was 200 nM.
Molecule `COc1ccc(Cl)cc1C(=O)NCCc1ccc(S(=O)(=O)NC(=O)NC2CCCCC2)cc1` [GLYBURIDE] has an Activity [3] of 62.02%.
With `C=C1CC[C@@H]2[C@](C)(CO)[C@H](O)CC[C@@]2(C)[C@@H]1C/C=C/c1ccccc1` the GI50 [2] was 2000 to 27000 nM.
With `C=C1CC[C@@H]2[C@](C)(CO)[C@H](O)CC[C@@]2(C)[C@@H]1C/C=C/c1cccc(Cl)c1` the GI50 [2] was 2000 to 27000 nM.
For `C[C@]1(CO)[C@H]2CC[C@@]3(CO3)[C@@H](C/C=C3/C(=O)OC[C@H]3OC(=O)/C=C/c3ccccc3)[C@]2(C)CC[C@H]1O`, the GI50 [4] was 500 to 9000 nM, the GI50 [5] was 500 to 9000 nM and the GI50 [6] was 500 to 9000 nM. It also gave a GI50 [7] of 500 to 9000 nM, a GI50 [2] of 500 to 9000 nM and a GI50 [8] of 500 to 9000 nM.
`C=C1CC[C@@H]2[C@](C)(CO)[C@H](O)CC[C@@]2(C)[C@@H]1C/C=C1/C(=O)OC[C@@H]1Oc1ccccc1OC` showed an IC50 [9] of 550 to 2000 nM.
`CCC(=O)OC[C@@]1(C)[C@H]2CC[C@@]3(CO3)[C@@H](C/C=C3/C(=O)OC[C@H]3OC(=O)/C=C/c3cccc(OC)c3)[C@]2(C)CC[C@H]1OC(=O)CC` gave a GI50 [4] of 600 to 4800 nM, a GI50 [5] of 600 to 4800 nM and a GI50 [6] of 600 to 4800 nM. For the same molecule, the GI50 [7] was 600 to 4800 nM, the GI50 [2] was 600 to 4800 nM and the GI50 [8] was 600 to 4800 nM.
`C=C1CC[C@@H]2[C@](C)(COC(C)=O)[C@H](OC(C)=O)CC[C@@]2(C)[C@@H]1C/C=C1/C(=O)OC[C@H]1OC(=O)CNC(C)=O` showed a GI50 [5] of 1500 nM.
`CCC(=O)OC[C@@]1(C)[C@H]2CC[C@@]3(CO3)[C@@H](C/C=C3/C(=O)OC[C@H]3OC(=O)/C=C/c3ccccc3)[C@]2(C)CC[C@H]1OC(=O)CC` showed a GI50 [4] of 80 to 6000 nM, a GI50 [5] of 80 to 6000 nM and a GI50 [6] of 80 to 6000 nM. It also gave a GI50 [7] of 80 to 6000 nM, a GI50 [2] of 80 to 6000 nM and a GI50 [8] of 80 to 6000 nM.
`C=C1CC[C@@H]2[C@]3(C)COC(C)(c4ccccc4)O[C@@H]3CC[C@@]2(C)[C@@H]1CC(C1=CCOC1=O)N1CCCC1C(=O)OC` (some centres not stated) gave a GI50 [1] of 1000 nM.
With `C=C1CC[C@@H]2[C@](C)(CO)[C@H](O)CC[C@@]2(C)[C@@H]1C/C=C1/C(=O)OC[C@H]1OC(=O)CCCCC1CCSS1` (some centres not stated) the EC50 [10] was 7200 to 15200 nM, the EC50 [11] was 7200 to 15200 nM and the “Selectivity Index” value [12] was 51 - 109. The EC50 [13] was 7200 to 15200 nM, the “Selectivity Index” value [14] was 51 - 109 and the “Selectivity Index” value [15] was 51 - 109.
Molecule `CCC(=O)OC[C@@]1(C)[C@H]2CC[C@@]3(CO3)[C@@H](C/C=C3/C(=O)OC[C@H]3OC(=O)/C=C/c3ccc(OC)c(OC)c3)[C@]2(C)CC[C@H]1OC(=O)CC` has a GI50 [4] of 400 to 7500 nM, a GI50 [5] of 400 to 7500 nM and a GI50 [6] of 400 to 7500 nM. It also gave a GI50 [7] of 400 to 7500 nM, a GI50 [2] of 400 to 7500 nM and a GI50 [8] of 400 to 7500 nM.
With `C=C1CC[C@@H]2[C@](C)(COC(C)=O)[C@H](OC(C)=O)CC[C@@]2(C)[C@@H]1CC(C1=CCOC1=O)n1cc(I)c(=O)[nH]c1=O` (some centres not stated) the GI50 [4] was 2000 nM, the GI50 [5] was 2000 nM and the GI50 [16] was 2000 nM. For the same molecule, the GI50 [1] was 2000 nM.
With `C=C1CC[C@@H]2[C@](C)(CO)[C@H](O)CC[C@@]2(C)[C@@H]1C/C=C1/C(=O)OC[C@H]1OC(=O)Nc1ccccc1` the GI50 [4] was 400 nM.
Molecule `C=C1CC[C@@H]2[C@](C)(CO)[C@H](O)CC[C@@]2(C)[C@@H]1C/C=C1/SC(=O)NC1=O` has a GI50 [2] of 780 nM.
In the case of `CC(C)(C)[Si](OC[C@@]1(C)[C@H]2CC[C@@]3(CO3)[C@@H](C/C=C3/C(=O)OC[C@H]3O)[C@]2(C)CC[C@H]1O)(c1ccccc1)c1ccccc1`, the IC50 [17] is reported as 8000 nM.
For `CC(=O)OC[C@@]1(C)[C@H]2CC[C@@]3(CO3)[C@@H](C/C=C3/C(=O)OC[C@H]3OC(C)=O)[C@]2(C)CC[C@H]1OC(C)=O`, the GI50 [4] was 250 to 5000 nM, the GI50 [5] was 250 to 5000 nM and the GI50 [6] was 250 to 5000 nM. The GI50 [7] was 250 to 5000 nM, the GI50 [2] was 250 to 5000 nM and the GI50 [8] was 250 to 5000 nM.
`C=C1CC[C@@H]2[C@]3(C)COC(C)(C)O[C@@H]3CC[C@@]2(C)[C@@H]1C/C=C1/C(=O)OC[C@@H]1Oc1ccc([N+](=O)[O-])cc1OC` showed an IC50 [9] of 550 to 2000 nM.
Molecule `CC(=O)OC[C@@]1(C)[C@H]2CC[C@@]3(CO3)[C@@H](CC(Sc3ccccc3)C3=CCOC3=O)[C@]2(C)CC[C@H]1OC(C)=O` (some centres not stated) has a GI50 [2] of 2000 nM.
`C=C1CC[C@@H]2[C@](C)(CO)[C@H](O)CC[C@@]2(C)[C@@H]1C/C=C/c1ccc(F)cc1` gave a GI50 [2] of 2000 to 27000 nM.
In the case of `C=C1CC[C@@H]2[C@](C)(CO)[C@H](O)CC[C@@]2(C)[C@@H]1C/C=C1/C(=O)OC[C@H]1O` [ANDROGRAPHOLIDE], the IC50 [18] is reported as 9700 nM, the GI50 [4] is reported as 3000 to 20000 nM and the GI50 [5] is reported as 3000 to 20000 nM. The GI50 [6] was 3000 to 20000 nM, the GI50 [7] was 3000 to 20000 nM and the GI50 [2] was 3000 to 20000 nM. It also gave a GI50 [8] of 3000 to 20000 nM, a GI50 [16] of 3000 to 20000 nM and a GI50 [1] of 3000 to 20000 nM. The Activity [19] was 64%, the Activity [20] was 54% and the IC50 [9] was 9700 nM.
With `C=C1CC[C@@H]2[C@](C)(CO)[C@H](O)CC[C@@]2(C)[C@@H]1C/C=C1/C(=O)OC[C@H]1OC(=O)c1ccccc1` the GI50 [5] was 1500 nM.
